According to a melting point compilation (Tetko et al.; mined from patent text by program, amines drawn as free bases though some values may be those of a salt):

Work on COc1cc2c(cc1OC)N(C)C(=O)CN=C2c1cccc(-c2ccc(Cl)cc2)c1 yielded a melting point of 131 °C. CCC(C)(C)c1c[nH]cn1 gave a melting point of 95 to 96 °C. Compound N#CC(O)COc1ccccc1 (stereo not given) has a melting point of 59 °C. Work on Cn1cnc(C(N)=O)c1NC(=S)NC(=O)c1ccccc1 yielded a melting point of 194 to 196 °C. c1ccc(COc2cccc3c2OCO3)cc1 showed a melting point of 62 to 63 °C. For O=c1c(-c2cccc(Cl)c2)c[nH]n1-c1cccc(C(F)(F)F)c1, the melting point was 190 to 192 °C. Cn1c(N2CCOCC2)nc(C(=O)NCc2ccc(F)c(Cl)c2)c(O)c1=O gave a melting point of 170 to 171 °C. In the case of C=CCn1c2c(ccc1=O)C(NCCc1ccccc1)CCC2 (stereo not given), the melting point is reported as 60 to 62 °C. O=C(Nc1cc(Cl)ccc1N1CCCCC1)c1ccncc1 gave a melting point of 141 to 143 °C. Compound CCCOc1ccc2c(c1)C(c1ccc(OC)cc1OCc1ccccc1)=C(C(=O)OC)[C@H]2c1ccc2c(c1)OCO2 has a melting point of 114 to 117 °C. With C[C@@H](NC(=O)c1cncc(-c2ccc(Cl)cc2)c1)[C@](O)(Cn1cncn1)c1ccc(F)cc1F the melting point was 93 to 101 °C. COc1cccc(Oc2c(NS(=O)(=O)c3ccc(C(C)(C)C)cc3)ncnc2OCCOc2ncc(C(C)=O)cn2)c1 showed a melting point of 142 to 144 °C. Work on CCOC(=O)c1ccc(C2=NOC(c3cc(Cl)cc(Cl)c3)(C(F)(F)F)C2)cc1OC (stereo not given) yielded a melting point of 142 to 144 °C. With COc1ccc(N(c2ccccc2)c2ccc(-c3ccc(-c4ccc(N(c5ccccc5)c5ccc(OC)cc5C)cc4)cc3)cc2)c(C)c1 the melting point was 181 to 183 °C. For Cc1nn2c(CCCOc3ccc(NCCC(=O)O)cc3)n[nH]c2c1Cl, the melting point was 151 to 153 °C. For Nc1ccc(-c2nc(-c3ccco3)no2)cc1, the melting point was 183 to 185 °C. For CC(C)(C)c1cc(NC(=O)Nc2cccc(Oc3nc4ccccc4s3)c2)[nH]n1, the melting point was 110 to 111 °C. Compound CN(C)C1(c2cccc(F)c2)CCC(=CC(=O)NCCc2c[nH]c3ccccc23)CC1 (stereo not given) has a melting point of 172 to 176 °C. Work on Cc1cc(C)c2c(c1)C(=O)C1(CCNCC1)CC2 yielded a melting point of over 260 °C. In the case of N#CCC(=O)c1ccc(Br)cc1, the melting point is reported as 164 °C. Work on O=C(CN1CCN(C(=O)c2cc(C(F)(F)F)cc(C(F)(F)F)c2)[C@H](Cc2c[nH]c3ccccc23)C1)c1ccc(F)cc1 yielded a melting point of 95 to 105 °C. Work on CC1(C)CC(=O)c2cc3c(cc2O1)OCCO3 yielded a melting point of 118 to 119 °C. O=C(NCCn1cc(Cn2ccnc2)c2ccccc21)Nc1ccccc1 showed a melting point of 198 to 199 °C. For CCn1cc(C=O)c2nc(N3CCN(Cc4ccccc4)CC3)ncc2c1=O, the melting point was 152 °C. Work on O=C1COc2cc(Br)c(F)cc2N1 yielded a melting point of 244 °C. With O=C(O)c1ccc(=O)n(Cc2ccc(-c3ccccc3)cc2)c1 the melting point was 245 to 250 °C. With O=C(O)c1cnn(-c2ccc(C(F)(F)F)cc2)c1C(F)(F)F the melting point was 157 to 158 °C. CS(=O)(=O)c1ccc(-c2cnn(CC(=O)c3ccc(F)cc3F)c(=O)c2-c2ccc(F)cc2)cc1 showed a melting point of 191 to 192 °C. O=c1[nH]c2ccc(Cl)cc2c(=O)n1S(=O)(=O)c1ccc(Cl)cc1 showed a melting point of 223 to 225 °C. Compound O=C1N(Cc2cc(F)ccn2)c2ccccc2C12COc1cc3c(cc12)OCCO3 (stereo not given) has a melting point of 228 to 231 °C. For COCCc1nc2c(N)nc3ccccc3c2n1CCCNC(=O)OC(C)(C)C, the melting point was 174 to 176 °C. Compound O=[N+]([O-])c1cccc(C#Cc2c(F)c(F)nc(F)c2F)c1 has a melting point of 130 to 131 °C. COC(=O)[C@@H](N)Cc1cc(I)c(Oc2ccc(O)cc2)c(I)c1 showed a melting point of 173 °C. CC(CO)c1ccc(-c2ccccc2F)cc1 (stereo not given) gave a melting point of 73 to 74 °C. In the case of CC(C)(C)c1ccc(-c2nnc(N)nc2N)cc1, the melting point is reported as 275 to 276 °C. CCCc1c(OC(=S)N(C)C)ccc2c(C)c(CC(=O)OC)c(=O)oc12 showed a melting point of 172 to 173 °C. CCOC(=O)COc1ccc(/C=C/c2nc3c(c(=O)n(CC)c(=O)n3CC)n2C)cc1 gave a melting point of 192 °C. In the case of Cc1nc(N2CCN(Cc3c(C)noc3-c3ccccc3)C2=O)sc1C(=O)NCc1cccnc1, the melting point is reported as 109 to 111 °C. For CC1(N2C(=O)c3cccc(N)c3C2=O)CCC(=O)NC1=O (stereo not given), the melting point was 268 to 269 °C. CC(=O)CCNC(=O)n1cc(F)c(=O)[nH]c1=O showed a melting point of 158 to 159 °C. In the case of Cc1cc(C=C2SC(=S)NC2=O)cc2c1OCC(=O)N2Cc1ccc(CN2CCCCC2)cc1, the melting point is reported as 277 to 278 °C. CCOc1nn(Cc2ccc(Cl)cc2Cl)cc1CCCOc1nn(-c2ccccc2)cc1CCC(=O)O showed a melting point of 114 to 118 °C. Work on N=C(CCOCC(COCCC(=N)NO)(COCCC(=N)NO)COCCC(=N)NO)NO (stereo not given) yielded a melting point of 60 °C. Compound CC(C)(S)C(=O)NC(=O)[C@@H](N)CS has a melting point of 124 to 125 °C. CCCNC(=O)[C@@H](C)NC(=O)OCc1ccccc1 showed a melting point of 116 to 120 °C. With CC(=O)NCc1ccc(CN2CCN(c3ccc(F)cc3)CC2)cc1[N+](=O)[O-] the melting point was 112 to 114 °C. CCOC(=O)c1cn(Cc2cccnc2)nc1O showed a melting point of 148 to 149 °C. For C#Cc1cc(C(C)(C)C)cc(C(C)(C)C)c1OCC, the melting point was 46 to 47 °C. Work on COC(=O)CCCc1cc2cc(Cl)ccc2n1S(=O)(=O)c1c(C)noc1C yielded a melting point of 96 to 98 °C. With COc1ccc(C(=O)Oc2ccc(C(=O)OCc3ccccc3)c(O)c2)cc1C12CC3CC(CC(C3)C1)C2 the melting point was 171 to 172 °C.
